Data reported in PMC8429728, “TNK1 is a ubiquitin-binding and 14-3-3-regulated kinase that can be targeted to block tumor growth” (Nature Communications, 2021).
Read-outs that look alike come from different tables or passages of the source.

Assays:
Assay in all cases: biochemical
Set-up in all cases: Reaction Biology 371-kinase panel at Km ATP, per cent enzyme activity relative to DMSO, single dose in duplicate
JNK3 = target: T1, JNK3 (Homo sapiens, UniProt P53779); conditions: duplicate measurements, Km ATP
T1 construct: gene MAPK10
Summary of the method: (§1)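 Compound screened at 300 nM in vitro across a 371-kinase panel. Enzyme activity expressed as % of DMSO controls. IC50 values came from sigmoidal variable-slope dose-response fits with the bottom fixed at 0.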

PRKX = PRKX (Homo sapiens, UniProt P51817); conditions: duplicate measurements, Km ATP
PRKX, sequence (P51817 whole entry): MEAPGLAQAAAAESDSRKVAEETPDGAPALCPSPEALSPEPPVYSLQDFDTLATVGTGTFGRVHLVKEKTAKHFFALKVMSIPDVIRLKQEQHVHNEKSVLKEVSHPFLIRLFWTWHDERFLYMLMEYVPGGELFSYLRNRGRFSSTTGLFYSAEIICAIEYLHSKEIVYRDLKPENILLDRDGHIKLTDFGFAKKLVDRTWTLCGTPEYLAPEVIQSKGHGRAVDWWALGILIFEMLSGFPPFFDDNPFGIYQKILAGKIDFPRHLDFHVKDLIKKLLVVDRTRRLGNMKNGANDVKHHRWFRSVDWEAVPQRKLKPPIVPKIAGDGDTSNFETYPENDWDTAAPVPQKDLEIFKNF
Summary of the method: as §1

PKD2/PRKD2 = PKD2/PRKD2 (Homo sapiens, UniProt Q9BZL6); conditions: duplicate measurements, Km ATP
Summary of the method: as §1

EPHA8 = EPHA8 (Homo sapiens, UniProt P29322); conditions: duplicate measurements, Km ATP
EPHA8, sequence (P29322 whole entry): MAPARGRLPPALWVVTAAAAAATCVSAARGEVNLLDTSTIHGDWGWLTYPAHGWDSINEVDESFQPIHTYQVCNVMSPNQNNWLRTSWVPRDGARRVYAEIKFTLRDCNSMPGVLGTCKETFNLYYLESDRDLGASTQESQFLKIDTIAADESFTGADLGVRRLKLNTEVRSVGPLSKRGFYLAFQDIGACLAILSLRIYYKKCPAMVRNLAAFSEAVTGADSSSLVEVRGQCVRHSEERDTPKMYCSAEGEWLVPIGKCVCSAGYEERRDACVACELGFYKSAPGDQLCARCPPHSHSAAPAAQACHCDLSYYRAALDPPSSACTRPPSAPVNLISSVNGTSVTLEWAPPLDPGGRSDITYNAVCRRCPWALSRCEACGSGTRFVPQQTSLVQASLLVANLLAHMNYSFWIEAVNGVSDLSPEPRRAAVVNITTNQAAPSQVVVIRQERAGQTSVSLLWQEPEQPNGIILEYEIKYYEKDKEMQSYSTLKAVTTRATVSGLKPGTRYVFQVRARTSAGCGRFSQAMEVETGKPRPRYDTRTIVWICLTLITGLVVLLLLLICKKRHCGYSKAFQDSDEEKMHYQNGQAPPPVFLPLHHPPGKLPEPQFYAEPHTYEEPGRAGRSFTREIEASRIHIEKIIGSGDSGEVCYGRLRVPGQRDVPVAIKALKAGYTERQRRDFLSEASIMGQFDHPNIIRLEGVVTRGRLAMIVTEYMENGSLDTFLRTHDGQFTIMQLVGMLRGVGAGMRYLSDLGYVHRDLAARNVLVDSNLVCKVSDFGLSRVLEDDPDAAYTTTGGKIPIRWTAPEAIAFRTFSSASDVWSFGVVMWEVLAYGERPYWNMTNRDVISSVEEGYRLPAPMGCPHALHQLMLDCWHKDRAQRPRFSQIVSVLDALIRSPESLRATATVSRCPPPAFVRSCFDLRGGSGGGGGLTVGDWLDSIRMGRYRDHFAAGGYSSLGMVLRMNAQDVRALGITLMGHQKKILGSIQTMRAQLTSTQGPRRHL
Summary of the method: as §1

CAMK1a = target: T2, CAMK1a (Homo sapiens, UniProt Q14012); conditions: duplicate measurements, Km ATP
T2 construct: gene CAMK1
T2 sequence (Q14012 whole entry): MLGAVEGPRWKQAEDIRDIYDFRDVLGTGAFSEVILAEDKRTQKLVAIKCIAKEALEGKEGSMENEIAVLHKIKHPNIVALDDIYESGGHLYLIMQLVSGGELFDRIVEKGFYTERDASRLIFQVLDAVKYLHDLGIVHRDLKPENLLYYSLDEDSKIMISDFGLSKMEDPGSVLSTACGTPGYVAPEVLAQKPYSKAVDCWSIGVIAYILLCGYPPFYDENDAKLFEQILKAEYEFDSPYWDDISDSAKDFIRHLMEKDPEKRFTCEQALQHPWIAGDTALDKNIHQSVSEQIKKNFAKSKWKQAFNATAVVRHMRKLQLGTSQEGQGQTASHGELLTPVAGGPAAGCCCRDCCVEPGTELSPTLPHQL
Summary of the method: as §1

EPHA6 = EPHA6 (Homo sapiens, UniProt Q9UF33); conditions: duplicate measurements, Km ATP
EPHA6, sequence (Q9UF33 whole entry): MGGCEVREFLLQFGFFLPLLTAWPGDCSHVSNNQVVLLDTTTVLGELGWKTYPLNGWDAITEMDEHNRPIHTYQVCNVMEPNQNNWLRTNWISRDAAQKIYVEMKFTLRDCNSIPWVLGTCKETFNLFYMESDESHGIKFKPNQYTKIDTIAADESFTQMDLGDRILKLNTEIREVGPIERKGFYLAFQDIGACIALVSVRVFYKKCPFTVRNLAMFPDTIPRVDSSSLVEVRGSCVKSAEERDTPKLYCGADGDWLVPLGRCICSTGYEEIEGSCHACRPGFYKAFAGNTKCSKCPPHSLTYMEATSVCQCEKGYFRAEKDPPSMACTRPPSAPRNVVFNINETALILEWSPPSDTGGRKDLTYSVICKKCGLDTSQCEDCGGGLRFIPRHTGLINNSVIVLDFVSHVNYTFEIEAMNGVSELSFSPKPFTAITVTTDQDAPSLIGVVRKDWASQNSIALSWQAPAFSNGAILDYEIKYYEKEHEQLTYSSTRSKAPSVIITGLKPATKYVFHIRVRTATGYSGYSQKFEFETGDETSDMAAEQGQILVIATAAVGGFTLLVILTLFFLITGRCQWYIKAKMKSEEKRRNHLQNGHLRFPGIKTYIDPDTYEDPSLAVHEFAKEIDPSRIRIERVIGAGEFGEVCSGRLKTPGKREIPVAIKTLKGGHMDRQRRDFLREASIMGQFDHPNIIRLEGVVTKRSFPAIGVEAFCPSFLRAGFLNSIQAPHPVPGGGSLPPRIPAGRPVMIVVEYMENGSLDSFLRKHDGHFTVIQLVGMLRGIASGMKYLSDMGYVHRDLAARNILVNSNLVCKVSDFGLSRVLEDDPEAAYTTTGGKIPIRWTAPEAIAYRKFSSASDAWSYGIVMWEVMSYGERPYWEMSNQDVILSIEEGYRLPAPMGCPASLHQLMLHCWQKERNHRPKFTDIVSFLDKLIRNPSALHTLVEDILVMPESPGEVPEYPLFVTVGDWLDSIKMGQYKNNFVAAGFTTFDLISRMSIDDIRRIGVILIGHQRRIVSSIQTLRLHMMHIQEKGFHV
Summary of the method: as §1

RSK2 = target: T3, RSK2 (Homo sapiens, UniProt P51812); conditions: duplicate measurements, Km ATP
T3 construct: gene RPS6KA3
Summary of the method: as §1

ERK2/MAPK1 = ERK2/MAPK1 (Homo sapiens, UniProt P28482); conditions: duplicate measurements, Km ATP
Summary of the method: as §1

AKT3 = AKT3 (Homo sapiens, UniProt Q9Y243); conditions: duplicate measurements, Km ATP
Summary of the method: as §1

CDK5/P25 = target: T4, CDK5/P25 (Homo sapiens, UniProt Q00535); conditions: duplicate measurements, Km ATP
T4 construct: p25
Summary of the method: as §1

ERK1 = target: T5, ERK1 (Homo sapiens, UniProt P27361); conditions: duplicate measurements, Km ATP
T5 construct: gene MAPK3
Summary of the method: as §1

NEK2 = NEK2 (Homo sapiens, UniProt P51955); conditions: duplicate measurements, Km ATP
NEK2, sequence (P51955 whole entry): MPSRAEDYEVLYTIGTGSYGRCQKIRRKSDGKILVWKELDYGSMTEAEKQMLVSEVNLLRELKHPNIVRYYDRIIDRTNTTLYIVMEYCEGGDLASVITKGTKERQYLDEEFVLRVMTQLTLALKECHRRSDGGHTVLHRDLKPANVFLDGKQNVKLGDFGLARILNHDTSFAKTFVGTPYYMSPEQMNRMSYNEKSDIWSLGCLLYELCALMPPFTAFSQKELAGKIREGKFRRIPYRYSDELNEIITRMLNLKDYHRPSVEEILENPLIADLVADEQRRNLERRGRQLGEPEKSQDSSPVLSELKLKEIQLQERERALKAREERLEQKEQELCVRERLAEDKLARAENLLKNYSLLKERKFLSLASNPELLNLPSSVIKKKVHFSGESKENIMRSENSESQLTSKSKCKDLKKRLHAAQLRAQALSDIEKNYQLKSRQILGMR
Summary of the method: as §1

ASK1/MAP3K5 = ASK1/MAP3K5 (Homo sapiens, UniProt Q99683); conditions: duplicate measurements, Km ATP
ASK1/MAP3K5, sequence (Q99683 whole entry): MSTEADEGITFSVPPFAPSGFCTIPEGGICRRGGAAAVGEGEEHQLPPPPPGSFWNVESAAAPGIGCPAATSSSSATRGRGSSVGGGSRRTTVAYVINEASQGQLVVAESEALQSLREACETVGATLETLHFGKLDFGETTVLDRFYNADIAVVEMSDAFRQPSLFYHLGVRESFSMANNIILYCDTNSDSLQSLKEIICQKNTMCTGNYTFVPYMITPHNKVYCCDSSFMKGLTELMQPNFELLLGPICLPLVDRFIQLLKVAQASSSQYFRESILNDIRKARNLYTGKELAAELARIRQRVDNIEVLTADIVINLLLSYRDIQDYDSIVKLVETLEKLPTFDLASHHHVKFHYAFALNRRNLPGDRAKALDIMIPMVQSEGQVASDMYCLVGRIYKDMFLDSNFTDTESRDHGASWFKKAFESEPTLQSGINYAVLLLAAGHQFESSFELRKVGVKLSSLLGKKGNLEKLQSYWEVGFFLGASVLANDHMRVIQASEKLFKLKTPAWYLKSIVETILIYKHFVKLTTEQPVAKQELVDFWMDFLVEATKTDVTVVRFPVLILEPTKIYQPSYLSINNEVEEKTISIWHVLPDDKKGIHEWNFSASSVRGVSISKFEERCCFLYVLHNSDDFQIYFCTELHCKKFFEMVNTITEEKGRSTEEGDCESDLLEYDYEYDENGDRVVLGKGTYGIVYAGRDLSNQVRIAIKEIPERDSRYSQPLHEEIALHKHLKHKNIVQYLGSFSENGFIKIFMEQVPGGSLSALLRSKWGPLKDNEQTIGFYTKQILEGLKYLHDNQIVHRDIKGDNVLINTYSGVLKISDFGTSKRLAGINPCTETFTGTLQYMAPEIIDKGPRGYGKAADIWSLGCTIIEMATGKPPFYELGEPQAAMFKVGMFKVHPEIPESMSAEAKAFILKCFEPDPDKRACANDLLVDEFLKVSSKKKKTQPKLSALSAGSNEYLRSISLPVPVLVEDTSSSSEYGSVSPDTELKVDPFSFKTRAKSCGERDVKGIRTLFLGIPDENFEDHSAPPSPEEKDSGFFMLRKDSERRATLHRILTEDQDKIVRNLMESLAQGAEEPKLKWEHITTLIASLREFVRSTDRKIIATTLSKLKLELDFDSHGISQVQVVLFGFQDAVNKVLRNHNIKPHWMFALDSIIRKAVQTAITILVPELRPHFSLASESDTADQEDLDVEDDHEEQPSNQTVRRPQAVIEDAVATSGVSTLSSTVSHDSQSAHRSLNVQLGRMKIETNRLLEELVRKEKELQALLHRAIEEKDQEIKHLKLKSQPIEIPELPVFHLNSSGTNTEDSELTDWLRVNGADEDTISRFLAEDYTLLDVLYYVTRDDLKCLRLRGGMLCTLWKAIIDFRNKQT
Summary of the method: as §1

CLK1 = CLK1 (Homo sapiens, UniProt P49759); conditions: duplicate measurements, Km ATP
CLK1, sequence (P49759 whole entry): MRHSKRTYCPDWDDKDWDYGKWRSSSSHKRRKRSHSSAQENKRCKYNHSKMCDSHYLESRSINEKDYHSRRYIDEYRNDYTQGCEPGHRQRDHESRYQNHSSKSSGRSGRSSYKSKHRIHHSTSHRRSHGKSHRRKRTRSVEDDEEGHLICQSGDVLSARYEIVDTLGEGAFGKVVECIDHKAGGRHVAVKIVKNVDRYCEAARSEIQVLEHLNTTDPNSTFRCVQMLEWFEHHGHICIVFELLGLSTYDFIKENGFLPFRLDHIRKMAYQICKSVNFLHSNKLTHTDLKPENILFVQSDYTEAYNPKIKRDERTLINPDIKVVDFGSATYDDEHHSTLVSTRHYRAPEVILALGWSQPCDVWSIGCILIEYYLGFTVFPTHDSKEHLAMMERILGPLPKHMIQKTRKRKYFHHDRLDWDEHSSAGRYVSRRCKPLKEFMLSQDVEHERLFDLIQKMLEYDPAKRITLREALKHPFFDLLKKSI
Summary of the method: as §1

ULK1 = ULK1 (Homo sapiens, UniProt O75385); conditions: duplicate measurements, Km ATP
Summary of the method: as §1

ZAK/MLTK = target: T6, ZAK/MLTK (Homo sapiens, UniProt Q9NYL2); conditions: duplicate measurements, Km ATP
T6 construct: gene MAP3K20
Summary of the method: as §1

NEK4 = NEK4 (Homo sapiens, UniProt P51957); conditions: duplicate measurements, Km ATP; read-out: % Enzyme Activity (relative to DMSO controls) / TP-0005801 (0.3µM) / Data 1
Summary of the method: as §1

CDK1/cyclin E = CDK1/cyclin E (Homo sapiens, UniProt P06493); conditions: duplicate measurements, Km ATP
Summary of the method: as §1

AKT2 = AKT2 (Homo sapiens, UniProt P31751); conditions: duplicate measurements, Km ATP
Summary of the method: as §1

CK1g1 = target: T7, CK1g1 (Homo sapiens, UniProt Q9HCP0); conditions: duplicate measurements, Km ATP
T7 construct: gene CSNK1G1
Summary of the method: as §1

[1] = read-out: % Enzyme Activity (relative to DMSO controls) / TP-0005801 (0.3µM) / Data 1
[2] = read-out: % Enzyme Activity (relative to DMSO controls) / TP-0005801 (0.3µM) / Data 2

remaining activity at 0.3 µM (JNK3; [1]): 81% | remaining activity at 0.3 µM (JNK3; [2]): 80.7% | remaining activity at 0.3 µM (PRKX; [1]): 93.7% | remaining activity at 0.3 µM (PRKX; [2]): 92.5% | remaining activity at 0.3 µM (PKD2/PRKD2; [1]): 66.5% | remaining activity at 0.3 µM (PKD2/PRKD2; [2]): 64.3% | remaining activity at 0.3 µM (EPHA8; [1]): 95.1% | remaining activity at 0.3 µM (EPHA8; [2]): 93.8% | remaining activity at 0.3 µM (CAMK1a; [1]): 92.6% | remaining activity at 0.3 µM (CAMK1a; [2]): 91.5% | remaining activity at 0.3 µM (EPHA6; [1]): 103% | remaining activity at 0.3 µM (EPHA6; [2]): 98.6% | remaining activity at 0.3 µM (RSK2; [1]): 90.5% | remaining activity at 0.3 µM (RSK2; [2]): 84.9% | remaining activity at 0.3 µM (ERK2/MAPK1; [1]): 87.1% | remaining activity at 0.3 µM (ERK2/MAPK1; [2]): 86.1% | remaining activity at 0.3 µM (AKT3; [1]): 105% | remaining activity at 0.3 µM (AKT3; [2]): 98.7% | remaining activity at 0.3 µM (CDK5/P25; [1]): 123% | remaining activity at 0.3 µM (CDK5/P25; [2]): 115% | remaining activity at 0.3 µM (ERK1; [1]): 108% | remaining activity at 0.3 µM (ERK1; [2]): 107% | remaining activity at 0.3 µM (NEK2; [1]): 60.3% | remaining activity at 0.3 µM (NEK2; [2]): 55.8% | remaining activity at 0.3 µM (ASK1/MAP3K5; [1]): 99% | remaining activity at 0.3 µM (ASK1/MAP3K5; [2]): 98.6% | remaining activity at 0.3 µM (CLK1; [1]): 11.9% | remaining activity at 0.3 µM (CLK1; [2]): 11.7% | remaining activity at 0.3 µM (ULK1; [1]): 49.9% | remaining activity at 0.3 µM (ULK1; [2]): 49.7% | remaining activity at 0.3 µM (ZAK/MLTK; [1]): 103% | remaining activity at 0.3 µM (ZAK/MLTK; [2]): 101% | remaining activity at 0.3 µM (NEK4): 122% | remaining activity at 0.3 µM (CDK1/cyclin E; [1]): 97.2% | remaining activity at 0.3 µM (CDK1/cyclin E; [2]): 94.9% | remaining activity at 0.3 µM (AKT2; [1]): 100% | remaining activity at 0.3 µM (AKT2; [2]): 99.9% | remaining activity at 0.3 µM (CK1g1; [1]): 88.5% | remaining activity at 0.3 µM (CK1g1; [2]): 87.8%
Compound: COc1cc(N2CCN(C)CC2)c(C)cc1Nc1ncc(Br)c(Nc2cccnc2N(C)C)n1 [TP-5801]
